The values that follow come from patent publication US20030134859A1 (SANKYO COMPANY, LIMITED, priority 2000, published 2003).

The test concerns leptin production. As to the kind of experiment: Enhancing activity for leptin production in adipocytes (ELISA). The note with it: leptin concentration as % of control group; for activity at 1 µM / activity at 0.001 µM / activity at 0.01 µM / activity at 0.1 µM: Rattus norvegicus, Adipocyte, read-out: Facilitating activity to produce leptin; for activity at 0.001 µM: 1 nm; for activity at 0.01 µM: 10 nm. It counts as cell-based, rat. The method in brief:
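Leptin release, quantified by rat leptin ELISA, expressed as percent of 0.1% DMSO control after 24 h at 37 °C. Cells were floating adipocytes isolated by collagenase digestion of epididymal fat from male 6-week Wistar Imamichi rats; compound tested at 1 nM–1 µM final.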
In general terms: In an ELISA, binding on a coated surface is turned into a signal by an enzyme label.

The structures appear in SMILES notation. Like-named read-outs stand apart in the source and are kept apart here.

On to `O=C(Nc1nc(-c2ccc3ccccc3c2)cs1)c1cc([N+](=O)[O-])ccc1Cl` [Example 42, N-[4-(2-Naphthyl)thiazol-2-yl)-(2-chloro-5-nitrophenyl)carboxamide], for which the activity at 1 µM (24 h) is 127%.
As for `O=C(Nc1ccc(Cl)nn1)c1cc([N+](=O)[O-])ccc1Cl` [Example 89], the “Facilitating activity to produce leptin” value (100 nm, 24 hr) is 123.2%.
For `O=C(Nc1ccc(S(=O)(=O)N2CCOCC2)cc1)c1cc([N+](=O)[O-])ccc1Cl` [Example 153, N-[4-(Morpholin-4-ylsulfonyl)phenyl]-(2-chloro-5-nitrophenyl)carboxamide], for the setting “24 h”, the activity at 1 µM stood at 113%.
Still for that read-out and setting: next, `O=C(Nc1ccc(NS(=O)(=O)c2ccccc2)cc1)c1cc([N+](=O)[O-])ccc1Cl` [Example 127, N-(4-Benzenesulfonylaminophenyl)-(2-chloro-5-nitrophenyl)carboxamide]: 115%.
Take `O=C(Nc1cnc2ccccc2c1)c1cc([N+](=O)[O-])ccc1Cl` [Example 55, N-(3-Quinolinyl)-(2-chloro-5-nitrophenyl)carboxamide]: under “24 h”, the activity at 0.001 µM was 116% and the activity at 0.01 µM turned out to be 115%. In addition, the activity at 0.1 µM (24 h, 100 nm) is 113%.
Turning to `Cc1nnc(NS(=O)(=O)c2ccc(NC(=O)c3cc([N+](=O)[O-])ccc3Cl)cc2)s1` [Example 101, N-[4-[(5-Methyl-[1,3,4]thiadiazol-2-yl)aminosulfonyl]phenyl]-(2-chloro-5-nitrophenyl)carboxamide], the activity at 1 µM (24 h) stood at 117%.
For the compound `CCCN(CCC)c1ccc(NC(=O)c2cc([N+](=O)[O-])ccc2Cl)cc1` [Example 182, N-[4-(N,N-Dipropylamino)phenyl]-(2-chloro-5-nitrophenyl)carboxamide], the activity at 0.01 µM (24 h) was determined as 110%. Also, where the note is “24 h, 100 nm”, the activity at 0.1 µM came to 112%.
Turning to `O=C(Nc1cc([N+](=O)[O-])ccc1Cl)c1cc([N+](=O)[O-])ccc1Cl` [Example 28, N-(2-Chloro-5-nitrophenyl)-(2-chloro-5-nitrophenyl)carboxamide], under “24 hr”, the activity at 1 µM was found to be 108%. Moreover, where the note is “100 nm, 24 hr”, the activity at 0.1 µM came out at 120%.
As for `O=C(Nc1ccc(S(=O)(=O)N2CCCCC2)cc1)c1cc([N+](=O)[O-])ccc1Cl` [Example 151, N-[4-(Piperidyisulfonyl)phenyl]-(2-chloro-5-nitrophenyl)carboxamide], the activity at 1 µM (24 h) came out at 113%. In addition, for the setting “24 h, 100 nm”, the activity at 0.1 µM came out at 113%.
In the case of `O=C(Nc1nc(-c2cccs2)cs1)c1cc([N+](=O)[O-])ccc1Cl` [Example 36, N-[4-(2-Thienyl)thiazol-2-yl)-(2-chloro-5-nitrophenyl)carboxamide], the activity at 0.1 µM (24 h, 100 nm) turned out to be 120%.
Turning to `O=C(Nc1nc(Cl)cc(Cl)n1)c1cc([N+](=O)[O-])ccc1Cl` [Example 83, N-(4,6-Dichloropyrimidin-2-yl)-(2-chloro-5-nitrophenyl)carboxamide], the activity at 0.1 µM (24 h, 100 nm) worked out at 126%.
On to `CCCCCCN(CC)c1ccc(NC(=O)c2cc([N+](=O)[O-])ccc2Cl)cc1` [Example 188, N-[4-(N-Ethyl-N-hexylamino)phenyl]-(2-chloro-55 nitrophenyl)carboxamide], for which the activity at 0.001 µM (24 h) was found to be 110%.
Consider `Cc1ccc(C(=O)Nc2ccc(NC(=O)c3cc([N+](=O)[O-])ccc3Cl)cc2)cc1` [Example 121, N-[4-(4-Methylbenzoyl)aminophenyl]-(2-chloro-5-nitrophenyl)carboxamide], for which the activity at 0.1 µM (24 h, 100 nm) amounted to 114%.
Turning to `Cc1c(C)c2c(c(C)c1O)C(=O)CC(C)(COc1ccc(NC(=O)c3cc([N+](=O)[O-])ccc3Cl)cc1)O2` (stereo not drawn) [Example 92, N-[4-(6-Hydroxy-2,5,7,8-tetramethyl-4-oxochroman-2-ylmethoxy)phenyl]-(2-chloro-5-nitrophenyl)carboxamide], where the note is “24 h, 100 nm”, the activity at 0.1 µM amounted to 116%.
On to `O=C(Nc1nc(-c2ccc([N+](=O)[O-])cc2)cs1)c1cc([N+](=O)[O-])ccc1Cl` [Example 246, N-[4-(4-Nitrophenyl)thiazol-2-yl]-(2-chloro-5-nitrophenyl)carboxamide], for which the activity at 0.01 µM (24 hr) amounted to 111%. For the same compound, for the setting “100 nm, 24 hr”, the activity at 0.1 µM worked out at 113%.
